Test results as given in patent US10577363B2, “Substituted piperidine compounds” (EPIZYME, INC., priority 2014, dated 2020).

These compounds were tested against SMYD3 (Homo sapiens (Human), UniProt Q9H7B4) (assay: SMYD3 biochemical assay (SPA, 3H-SAM methylation of MEKK2 protein substrate)). Settings: Table 1A; IC50 values are an average of n = 1 to n = 50; read-out: SMYD3 Biochem IC50.
How it was run: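 Native full-length human SMYD3 (E. coli-expressed, tags removed) was preincubated with compound for 30 min at room temperature in 25 mM Tris-Cl pH 8.0, 1 mM TCEP, 0.005% BSG, 0.005% Tween 20. Reaction was started with 3H-SAM plus GST-MEKK2, quenched with 100 uM unlabeled SAM, and read by SPA scintillation counting.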

Point of comparison: `C[C@@H]1C[C@@H](NC(=O)c2cc(C3CC3)on2)CCN1S(=O)(=O)c1ccnc(N(C)CCN)c1` [compound 512, N-((2R,4S)-1-((2-((2-aminoethyl)(methyl)amino)pyridin-4-yl)sulfonyl)-2-methylpiperidin-4-yl)-5-cyclopropylisoxazole-3-carboxamide], IC50 487 nM. Against it:
- C[C@H]1C[C@@H](NC(=O)c2cc(C3CC3)on2)CCN1S(=O)(=O)c1ccc(C#N)nc1 [compound 513, N-((2S,4S)-1-((6-cyanopyridin-3-yl)sulfonyl)-2-methylpiperidin-4-yl)-5-cyclopropylisoxazole-3-carboxamide] — 2.2-fold higher, 1090 nM
- CCN(CC)S(=O)(=O)N1CC[C@H](NC(=O)c2cc(C3CC3)on2)C[C@@H]1C [compound 518, 5-cyclopropyl-N-((2S,4S)-1-(N,N-diethylsulfamoyl)-2-methylpiperidin-4-yl)isoxazole-3-carboxamide] — 7.6-fold higher, 3720 nM
- C[C@H]1C[C@@H](NC(=O)c2cc(C3CC3)on2)CCN1S(=O)(=O)c1cccc(C(F)(F)F)n1 [compound 519, 5-cyclopropyl-N-((2S,4S)-2-methyl-1-((6-(trifluoromethyl)pyridin-2-yl)sulfonyl)piperidin-4-yl)isoxazole-3-carboxamide] — 2.4-fold lower, 204 nM
- C[C@H]1C[C@@H](NC(=O)c2cc(C3CC3)on2)CCN1S(=O)(=O)c1cccc(NCCCN)n1 [compound 520, N-((2S,4S)-1-((6-((3-aminopropyl)amino)pyridin-2-yl)sulfonyl)-2-methylpiperidin-4-yl)-5-cyclopropylisoxazole-3-carboxamide] — 9.7-fold lower, 50.1 nM
- C[C@H]1C[C@@H](NC(=O)c2cc(C3CC3)on2)CCN1S(=O)(=O)c1cccc(N(C)CCN2CCOCC2)n1 [compound 521, 5-cyclopropyl-N-((2S,4S)-2-methyl-1-((6-(methyl(2-morpholinoethyl)amino)pyridin-2-yl)sulfonyl)piperidin-4-yl)isoxazole-3-carboxamide] — 9.2-fold higher, 4500 nM
- C[C@H]1C[C@@H](NC(=O)c2cc(C3CC3)on2)CCN1S(=O)(=O)c1ccc(N)nc1 [compound 522, N-((2S,4S)-1-((6-aminopyridin-3-yl)sulfonyl)-2-methylpiperidin-4-yl)-5-cyclopropylisoxazole-3-carboxamide] — within 1.5-fold, 407 nM
- C[C@H]1C[C@@H](NC(=O)c2cc(C3CC3)on2)CCN1S(=O)(=O)c1cccnc1N [compound 523, N-((2S,4S)-1-((2-aminopyridin-3-yl)sulfonyl)-2-methylpiperidin-4-yl)-5-cyclopropylisoxazole-3-carboxamide] — 2.2-fold higher, 1080 nM

Same assay, conditions: Table 2A; read-out: SMYD3 Biochem IC50

Compound `CNCCCCS(=O)(=O)N1CC[C@H](NC(=O)c2cc(C3CC3)on2)C[C@@H]1C` [compound 561, 5-cyclopropyl-N-((2S,4S)-2-methyl-1-((4-(methylamino)butyl)sulfonyl)piperidin-4-yl)isoxazole-3-carboxamide] has an IC50 of 5.1 nM.

Same assay, conditions: average of n = 1 to n = 50; read-out: SMYD3 Biochem IC50

Point of comparison: `Cc1ccnc(S(=O)(=O)N2CC[C@H](NC(=O)c3cc(C4CC4)on3)C[C@@H]2C)c1` [compound 741, 5-cyclopropyl-N-((2S,4S)-2-methyl-1-((4-methylpyridin-2-yl)sulfonyl)piperidin-4-yl)isoxazole-3-carboxamide], IC50 512 nM. Against it:
- COCCN(C)CCCS(=O)(=O)N1[C@@H]2CC[C@H]1C[C@@H](NC(=O)c1cc(C3CC3)on1)C2 [compound 665, 5-cyclopropyl-N-((1R,3r,5S)-8-((3-((2-methoxyethyl)(methyl)amino)propyl)sulfonyl)-8-azabicyclo[3.2.1]octan-3-yl)isoxazole-3-carboxamide] — 5.9-fold lower, 86.8 nM
- C[C@@H]1C[C@@H](NC(=O)c2cc(C3CC3)on2)CCN1S(=O)(=O)C(CCN)c1ccccc1 (stereo partly drawn) [compound 704, N-((2R,4S)-1-((3-amino-1-phenylpropyl)sulfonyl)-2-methylpiperidin-4-yl)-5-cyclopropylisoxazole-3-carboxamide] — 2.3-fold lower, 218 nM
- Nc1cccc(S(=O)(=O)N2[C@@H]3CCC[C@H]2C[C@H](NC(=O)c2cc(C4CC4)on2)C3)n1 [compound 740, N-((1R,3s,5S)-9-((6-aminopyridin-2-yl)sulfonyl)-9-azabicyclo[3.3.1]nonan-3-yl)-5-cyclopropylisoxazole-3-carboxamide] — within 1.5-fold, 498 nM
- CC1(C(=O)N2CCC(NC(=O)c3cc(C4CC4)on3)CC2)CCNCC1 [compound 760, 5-cyclopropyl-N-(1-(4-methylpiperidine-4-carbonyl)piperidin-4-yl)isoxazole-3-carboxamide] — within 1.5-fold, 742 nM
- Cc1ccc(S(=O)(=O)N2C3CCC[C@@H]2C[C@@H](NC(=O)c2cc(C4CC4)on2)C3)nc1 [compound 763, 5-cyclopropyl-N-((1R,3S)-9-((5-methylpyridin-2-yl)sulfonyl)-9-azabicyclo[3.3.1]nonan-3-yl)isoxazole-3-carboxamide] — 1.5-fold higher, 770 nM

Same assay, conditions: read-out: SMYD3 Biochem IC50

Point of comparison: `CNc1ncccc1S(=O)(=O)N1C2CCCC1CC(NC(=O)c1cc(C3CC3)on1)C2` (centres unmarked) [compound 524, 5-cyclopropyl-N-(9-((2-(methylamino)pyridin-3-yl)sulfonyl)-9-azabicyclo[3.3.1]nonan-3-yl)isoxazole-3-carboxamide], IC50 1850 nM. Against it:
- CC(C)CN(C)c1ccc(S(=O)(=O)N2C3CCCC2CC(NC(=O)c2cc(C4CC4)on2)C3)cn1 (centres unmarked) [compound 514, 5-cyclopropyl-N-(9-((6-(isobutyl(methyl)amino)pyridin-3-yl)sulfonyl)-9-azabicyclo[3.3.1]nonan-3-yl)isoxazole-3-carboxamide] — higher, > 10000 nM
- NCCNc1ccc(S(=O)(=O)N2C3CCCC2CC(NC(=O)c2cc(C4CC4)on2)C3)cn1 (centres unmarked) [compound 515, N-(9-((6-((2-aminoethyl)amino)pyridin-3-yl)sulfonyl)-9-azabicyclo[3.3.1]nonan-3-yl)-5-cyclopropylisoxazole-3-carboxamide] — 110-fold lower, 17.6 nM
- NCCCNc1ccc(S(=O)(=O)N2C3CCCC2CC(NC(=O)c2cc(C4CC4)on2)C3)cn1 (centres unmarked) [compound 516, N-(9-((6-((3-aminopropyl)amino)pyridin-3-yl)sulfonyl)-9-azabicyclo[3.3.1]nonan-3-yl)-5-cyclopropylisoxazole-3-carboxamide] — 25-fold lower, 74.2 nM
- CN(CCCN)c1ccc(S(=O)(=O)N2C3CCCC2CC(NC(=O)c2cc(C4CC4)on2)C3)cn1 (centres unmarked) [compound 517, N-(9-((6-((3-aminopropyl)(methyl)amino)pyridin-3-yl)sulfonyl)-9-azabicyclo[3.3.1]nonan-3-yl)-5-cyclopropylisoxazole-3-carboxamide] — 23-fold lower, 80.3 nM

Same assay, conditions: read-out: SMYD3 Biochem IC50*

Point of comparison: `O=C(N[C@H]1C[C@H]2CC[C@@H](C1)N2S(=O)(=O)N1CCNCC1Cc1ccccc1)c1cc(C2CC2)on1` (stereo partly drawn) [compound 940, N-((1R,3r,5S)-8-((2-benzylpiperazin-1-yl)sulfonyl)-8-azabicyclo[3.2.1]octan-3-yl)-5-cyclopropylisoxazole-3-carboxamide], IC50 47.5 nM. Against it:
- C[C@H]1C[C@@H](NC(=O)c2cc(C3CC3)on2)CCN1S(=O)(=O)C[C@H]1CCCNC1 [compound 854, 5-cyclopropyl-N-((2S,4S)-2-methyl-1-((((S)-piperidin-3-yl)methyl)sulfonyl)piperidin-4-yl)isoxazole-3-carboxamide] — 6.9-fold lower, 6.92 nM
- C[C@H]1C[C@@H](NC(=O)c2cc(C3CC3)on2)CCN1S(=O)(=O)C[C@@H]1CCCNC1 [compound 875, 5-cyclopropyl-N-((2S,4S)-2-methyl-1-((((R)-piperidin-3-yl)methyl)sulfonyl)piperidin-4-yl)isoxazole-3-carboxamide] — 4.8-fold lower, 10 nM
